PubChem BioAssay AID624344 (Sanford-Burnham Center for Chemical Genomics, 2012)
Activity calls are given as the source filed them. The rule behind the calls is not given here.

Tests used:
Cytotoxicity = assay: inhibitors of PAF-induced NFkB signaling in CF airway cells, dose response, cell-based, uHTS hits, panel, cytotoxicity readout (AID 624344); conditions: CF bronchial epithelial cells, mean of runs
[1] = as above; conditions: CF bronchial epithelial cells, PAF-induced NFkB reporter inhibition; with PAF, mean of runs

Row | SMILES | IC50 (Cytotoxicity) | IC50 [1]
1 | CC(C)C[C@@H](CN1CCCC1CN1C(=S)NC[C@@H]1Cc1ccc(O)cc1)N1C[C@H](Cc2ccc(O)cc2)N(CCc2ccccc2)C1=S (stereo not given in full) | 18.2 µM | 10.9 µM
2 | C[C@@H](NC(=O)c1coc(=O)c(Br)c1)c1ccccc1 | 4.95 µM | 4.1 µM
3 | Cc1ccc(NS(=O)(=O)c2ccc(-c3cnc(C4CC4)o3)cc2)c(C)c1 | 32.5 µM | 14.2 µM
4 | CN(Cc1ccco1)c1ncnc2ccc(-c3ccoc3)cc12 | 50.9 µM (inactive) | 8.08 µM
5 | CC(C)OC(=O)c1cccc(C(=O)Nc2cccc(NC(=O)c3cccc(C(=O)OC(C)C)n3)n2)n1 | > 79 µM (inactive) | 4.5 µM
6 | O=[N+]([O-])c1cccc(/C=N/Nc2cc(N3CCOCC3)ncn2)c1 | 19.1 µM | 3.21 µM
7 | Cn1c(Sc2ccc(Cl)cc2)c(C=O)c2ccccc21 | 17.3 µM | 2.48 µM
8 | O=C(Nc1cccc2[nH]ncc12)c1ccc(F)cc1 | > 79 µM (inactive) | 1.06 µM
9 | FC(F)(F)c1nnc2c(Sc3ccc(Cl)cc3)nc3ccccc3n12 | 1.03 µM | 0.859 µM
10 | COc1ccc(Nc2nc(-c3cccs3)nc3ccccc23)cc1S(=O)(=O)N1CCOCC1 | 8.98 µM | 3.78 µM
11 | O=C1Cc2c([nH]c3ccc(Br)cc23)-c2ccccc2N1 | 16.4 µM | 3.75 µM
12 | COc1ccc(S(=O)(=O)N(C(C)=O)c2ccc(OC(C)=O)c3ccccc23)cc1[N+](=O)[O-] | 6.46 µM | 3.38 µM
13 | CCSc1nsc(NC(=O)Nc2cccc(OC)c2)n1 | 23.3 µM | 4.22 µM
14 | CC(=O)c1ccc(Nc2ncnc3ccc(Br)cc23)cc1 | 37 µM | 2.18 µM
15 | CC(=O)Nc1ccc(S(=O)(=O)N2c3ccccc3C(C)=CC2(C)C)cc1 | 44.5 µM | inactive
16 | O=C(O)/C=C/c1ccc2c(-c3ccccc3)onc2c1 | 4.73 µM | 1.81 µM
17 | Cc1ccc(-c2c(C#N)c(N)n3c(nc4ccccc43)c2C#N)cc1 | 5.34 µM | 2.89 µM
18 | CC1CCN(Cc2c(C(=O)N/N=C/c3ccc(C(C)(C)C)cc3)nnn2-c2nonc2N)CC1 | 29.8 µM | 14.6 µM
19 | C=CCSc1nc2ccccc2n1C(=O)/C=C/c1ccc(OC)c(OC)c1 | 62 µM (inactive) | 3.46 µM
20 | COc1ccc(Oc2cc(NC(=O)c3nn(C)cc3[N+](=O)[O-])cc([N+](=O)[O-])c2)cc1 | 1.69 µM | 3.27 µM

Row | SMILES | IC50 (Cytotoxicity) | IC50 [1]
21 | COc1cccc(NC(=O)Nc2nnc(CC(=O)Nc3ccccc3)s2)c1 | 55.8 µM (inactive) | 4.89 µM
22 | COc1cccc(N2CCN(c3c(C#N)c(C(F)(F)F)nn3C)CC2)c1 | 58.4 µM (inactive) | 2.27 µM
23 | COc1ccc(CN(CCC(c2ccc(F)cc2)C2CCOC(C)(C)C2)C(=O)c2ccco2)cc1 (stereo not given) | 8.96 µM | 6.57 µM
24 | COc1cccc(-c2nnc3sc(C4CCCCC4)nn23)c1 | 10.6 µM | 0.82 µM
25 | Cc1c(C(=O)c2cccc3ccccc23)c2cccc3c2n1[C@H](CN1CCOCC1)CO3 | 16.3 µM | 7.9 µM
26 | CC1Cc2ccccc2N1c1ncnc2nc[nH]c12 (stereo not given) | 36.2 µM | 2.46 µM
27 | Cc1cc(C)nc(Sc2ncnc(N)c2[N+](=O)[O-])n1 | 13.5 µM | 5.09 µM
28 | Cc1ccc2occ(/C=N/NC(=O)c3ccccc3C)c(=O)c2c1 | 43.2 µM | 1.36 µM
29 | Cn1ncc2c(O/N=C(\N)c3ccc(C(C)(C)C)cc3)ncnc21 | 34.9 µM | 8.28 µM
30 | NC(N)=NN=C(c1ccc(F)cc1)c1ccc(C(F)(F)F)cc1 | 25.3 µM | 5.87 µM
31 | COc1cc(C(=O)Nc2nnc(-c3sccc3C)s2)cc(OC)c1OC | 4.33 µM | inactive
32 | C=CCN(CC=C)c1ncnc2[nH]ncc12 | > 79 µM (inactive) | 1.24 µM
33 | O=c1c(-c2c(O)cc(O)c3c2O[C@H](c2ccc(O)cc2)CC3)c(-c2ccc(O)cc2)oc2cc(O)cc(O)c12 | 5.44 µM | 1.44 µM
34 | CCCCN(CCCC)c1ncnc2nc[nH]c12 | 41.4 µM | 5.64 µM
35 | C[C@H]1CCCC(=O)CCC/C=C/c2cc(O)cc(O)c2C(=O)O1 | 25.9 µM | 14 µM
36 | COc1ccc(S(=O)(=O)c2c(O)c3ccc(C(=O)Nc4ccccc4Cl)cc3[nH]c2=O)cc1 | 37.8 µM | 7.32 µM
37 | Cc1cccc(C)c1NS(=O)(=O)c1ccc(-c2cnc(C3CC3)o2)cc1 | 35 µM | 11.8 µM
38 | Cc1ccc(N(C)C(=O)c2cc(S(=O)(=O)N3CCCCC3)c[nH]2)cc1 | > 79 µM (inactive) | 11.5 µM
39 | CCOc1cccc(-c2nnc3sc(C4CCCCC4)nn23)c1 | 33.3 µM | 2.88 µM
40 | CC(=O)c1cccc(NC(=O)COC(=O)c2ccc(S(C)(=O)=O)c([N+](=O)[O-])c2)c1 | 12.6 µM | 5.26 µM

Row | SMILES | IC50 (Cytotoxicity) | IC50 [1]
41 | CC(C)C[C@H]1CNC(=S)N1C[C@H]1CCCN1C[C@H](Cc1ccc(O)cc1)N1C[C@H](Cc2ccc(O)cc2)N(CC2CCCCC2)C1=S | 51.2 µM (inactive) | inactive
42 | Cc1cccc(N2CCN(C(=O)CCn3c(=S)[nH]c4cc5c(cc4c3=O)OCO5)CC2C)c1 (stereo not given) | 18.5 µM | 6.2 µM
43 | CS(=O)(=O)Nc1cccc(-c2cc(NC=O)c3ncc(-c4ccc(F)cc4)n3c2)c1 | 8.66 µM | 2.4 µM
44 | Cc1[nH]nc2nc(SCC(=O)NCCC3=CCCCC3)n(-c3ccc(Br)cc3)c(=N)c12 | 6.73 µM | 8.27 µM
45 | C=C1C(=O)O[C@@H]2[C@H]3O[C@]3(C)CC/C=C(\C)CC[C@@H]12 | 18.1 µM | 3.59 µM
46 | Cc1cc(C)c(O)c(CN(C)Cc2cc(Cl)cc(Cl)c2O)c1 | 9.57 µM | 4.39 µM
47 | c1csc(CNc2ncnc3ccc(-c4ccoc4)cc23)c1 | 7.68 µM | 0.194 µM
48 | COc1ccc(NC(=O)c2cc3c(-c4ccc(OC)c(OC)c4)nn(C)c3s2)cc1OC | 5.55 µM | 6.06 µM
49 | Oc1ccc(CCNc2ncnc3ccc(Cl)cc23)cc1 | 40.6 µM | 0.831 µM
50 | O=C(c1ccccc1)C1OC1C(=O)c1ccccc1 (stereo not given) | 54.5 µM (inactive) | 6.25 µM
51 | O=C(CCC1COc2ccccc2O1)Nc1ccc(Cl)cn1 (stereo not given) | 50.9 µM (inactive) | 10.2 µM
52 | Cc1c(C(=O)OCC(C)C)[nH]c2c1C(=O)CC(c1ccco1)C2 (stereo not given) | 38.3 µM | inactive
53 | CC1CCc2sc3ncnc(N4CCOCC4)c3c2C1 (stereo not given) | 7.61 µM | 5.9 µM
54 | COC(=O)c1ccc(NC(=O)c2ccccc2NS(=O)(=O)c2ccccc2)cc1 | 39 µM | 4.53 µM
55 | COc1ccc(NC(=O)Nc2nnc(-c3ccncc3)s2)cc1 | 64.7 µM (inactive) | 5.6 µM
56 | Cc1ncc(CO)c2c1Oc1nc(-c3ccccc3F)nc(SCC(=O)N(C)c3ccccc3)c1C2 | 11.3 µM | 4.17 µM
57 | CCCC1/C(=N/O)CC(c2ccccc2)NC1c1ccccc1 (stereo not given) | 6.23 µM | 5.52 µM
58 | Cc1ccc2c(c1)C(=O)C(=O)N2Cc1ccc(C(F)(F)F)cc1 | > 79 µM (inactive) | inactive
59 | O=[N+]([O-])c1ccc(Oc2ccc(F)cc2Br)c2ccncc12 | 38.6 µM | 3.97 µM
60 | CC(C)[C@H](CO)Nc1nc(NCc2ccc(S(N)(=O)=O)cc2)c2ncn(C(C)C)c2n1 | 11.9 µM | 1.67 µM
